In PMC9223658, “New Borane-Protected Derivatives of α-Aminophosphonous Acid as Anti-Osteosarcoma Agents: ADME Analysis and Molecular Modeling, In Vitro Studies on Anti-Cancer Activities, and NEP Inhibition as a Possible Mechanism of Anti-Proliferative Activity” (International Journal of Molecular Sciences, 2022):

Legend:
[1] = MTT viability assay, 24 h; assay type: cell-based; conditions: human, normal osteoblasts hFOB 1.19 cells, 2% FBS, read-out: CC50 (µM ± SD) hFOB 1.19
Experimental: One of the features specific totumor cells is the unlimited potential for proliferation. […] To this end, the assay conditions were established suchthat they encourage the proliferation of OS cells, i.e., the cell cultures at low density were incubated with compounds diluted in the growth medium (10% FBS) for an extended time of 96 h. Additionally, cisplatin, i.e., a common cytostatic used in osteosarcoma treatment, was included as a positive control in this study. Moreover, since the new generation of anti-cancer compounds is highly desired to be inert (non-cytotoxic) towards normal cells, the influence of compounds 1–7 on the viability of human normal cells (osteoblasts hFOB 1.19 and colon fibroblasts CCD-18Co) was also determined.To this end, the assay conditions were established such that they restrict the proliferation of OS cells and to establish whether the compounds have cytotoxic potential, i.e., the cell cultures were incubated with compounds diluted in the medium with a reduced concentration of FBS (2%) for a shortened time of 24 h. […] However, this activity varied depending on both the types of the compounds and the osteosarcoma cell lines (Table 4).
The anti-proliferative activity of compounds 1–7 against the HOS and Saos-2 osteosarcoma cells and the viability of the human normal hFOB 1.19 and CCD-18Co cells were screened by means of the MTT method. This method is commonly used to assess cell viability and proliferation or to determine the cytotoxicity of any compounds. It is a reliable method for this purpose because it is based on measurement of the level reduction in MTT dye to formazan byNAD(P)H-dependent oxidoreductase enzymes of metabolically active cells.
To assess the viability of human normal cells, confluent hFOB 1.19 (3 × 10^5 cells/mL) and CCD-18Co (1 × 10^5 cells/mL) cells seeded in 96-well plates (Nunc) were incubated with compounds 1–7 at concentrations of 3.125, 6.25, 12.5, 25, 50, 100 and 200 µM prepared in medium with 2% FBS (maintaining medium) for 24 h. The control was constituted by the untreated cells (0 µM). Next, the MTT assay was carried out as described previously.
(§1) The results of these assays were calculated as a percent of the untreated cells (100%; control). Then, the IC50 (concentration resulting in 50% inhibition of proliferation) and CC50 (concentration resulting in a 50% decrease in viability) values were calculated from a non-linear regression (log(inhibitor) vs. normalized response-variable slope) using GraphPad Prism 5.0 (GraphPAD Software Inc., San Diego, CA, USA). The IC50 and CC50 results were presented as themean ± SD of at least three experiments. In the case of the BrdU assay, the results were presented as a percent of untreated cells (100%; control).

HOS cells [2] = experiment: Migration, wound and transwell assays; assay type: cell-based, human; conditions: 24 h; for decrease of migration: wound and transwell assays
Experimental: (§2) The migration of the HOS and Saos-2 cells was examined using the wound and transwell assays. The wound assay was performed in plastic plates (3-cm diameter, Nunc), in which the osteosarcoma cells were seeded at a density of 3.0 × 10^5 cells/mL. The assay was performed as described previously. Briefly, confluent cell cultures (with wounds) were treated with compounds 4 and 6 at concentrations of 12.5, 25, 50 µM and 20, 40, 80 µM as well as 15, 30, 60 µM and 21.25, 42.5, 85 µM for 24 h, respectively. The solutions of the compounds were prepared in a medium with 2% FBS. The control was constituted by the untreated cells (0 µM). To determine the migratory activity of the cells, the width of the wounds (at 0 and 24 h after incubation) was measured, and photos were taken using an inverted microscope Olympus CKX41 equipped with Image Processing (CellSense) software (Olympus, Tokyo, Japan). The results were expressed as a percentage of wound closure calculated using the following formula: ((width of wound at 0h—width of wound after 24h)/width of wound at 0h) × 100%.
(§3) The transwell migration assay was performed using inserts equipped with a membrane with 8 µm pore size in 24-well plates (Corning, Durham, NC, USA). To this end, the osteosarcoma cells (1 × 10^6 cells/mL) were suspended in a medium supplemented with 0.5% FBS and compounds 4 or 6 at the same concentrations as in the wound assay. The cells were added to the top chambers. The bottom chambers were filled with an appropriate medium supplemented with 10% FBS. After 24 h of incubation, the number of osteosarcoma cells migrating to the lower surface of the insert membrane was quantified using Calcein AM (Sigma Aldrich), which releases the fluorophore after intracellular degradation. The fluorescence was measured by means of a Perkin Elmer Victor^TM plate reader (Thermo Fisher Scientific, Rockford, IL, USA). The cell migratory activity after the treatment with compounds 4 and 6 was calculated as a percentage of invading cells in comparison with the number of invading untreated cells (100%; control).

Saos-2 cells = experiment: Migration, wound and transwell assays; assay type: cell-based, human; conditions: Saos-2, 24 h
Experimental: as §2, §3

NEP (neprilysin) = target: T1, NEP (neprilysin) (Homo sapiens, UniProt P08473); experiment: Neutral endopeptidase activity assay (fluorometric); assay type: biochemical; conditions: vs control
T1 construct: purchased BioVision, Waltham, MA, USA
Experimental: The NEP activity in the presence of compounds 4 and 6 was determined using the Neprilysin Activity Assay Kit (BioVision, Waltham, MA, USA) according to the manufacturer’s instructions. The measurement is based on the ability of active neprilysin to cleave a synthetic substrate (Abz-based peptide) to release a fluorophore, which can be easily quantified using a fluorescence microplate reader. Briefly, pure neprilysin (5µLof stock solution) was incubated with solutions of the tested compounds (at least 4 concentrations in the range of 0.01–50 µM) for 10 min at 37 °C. The reaction was started by adding the substrate solution, and the final sample volume was 100µL. Fluorescence was measured (Ex/Em = 330/430nm) in the kinetic mode at 37 °C for 1–2 h. The same procedure was used to measure the control and background sample. Thiorphan was used as a reference NEP inhibitor. NEP activity was determined with the prepared Abz standard curve and expressed in µU/mL. The experiments were performed at least in triplicates, and the graphs represent mean ±SD values.

HOS cells [3] = experiment: BrdU proliferation assay, 96 h; assay type: cell-based, human; conditions: 25 µM, cells pre-treated with 100 µM thiorphan for 1 h, 96 h
Experimental: In the study on the implication of NEP in the anti-proliferative activity of compound 4, cell proliferation was determined with the BrdU assay. Cell cultures were prepared as described above. Depending on the requirements, the HOS and Saos-2 cells were treated with non-cytotoxic concentrations of the NEP inhibitor—thiorphan (1, 5, 20, 100, 200, 500 µM) or pre-treated with thiorphan (100 µM) for 1 h. In this scheme, compound 4 (HOS—25 µM; Saos-2—60 µM) was added alone or in combination with the NEP inhibitor into the cell cultures. Finally, cell proliferation was evaluated with the BrdU Cell Proliferation Assay according to the manufacturer’s instructions (Millipore, Darmstadt, Germany) after a 96-h incubation.
as §1

T1 sequence (P08473 whole entry): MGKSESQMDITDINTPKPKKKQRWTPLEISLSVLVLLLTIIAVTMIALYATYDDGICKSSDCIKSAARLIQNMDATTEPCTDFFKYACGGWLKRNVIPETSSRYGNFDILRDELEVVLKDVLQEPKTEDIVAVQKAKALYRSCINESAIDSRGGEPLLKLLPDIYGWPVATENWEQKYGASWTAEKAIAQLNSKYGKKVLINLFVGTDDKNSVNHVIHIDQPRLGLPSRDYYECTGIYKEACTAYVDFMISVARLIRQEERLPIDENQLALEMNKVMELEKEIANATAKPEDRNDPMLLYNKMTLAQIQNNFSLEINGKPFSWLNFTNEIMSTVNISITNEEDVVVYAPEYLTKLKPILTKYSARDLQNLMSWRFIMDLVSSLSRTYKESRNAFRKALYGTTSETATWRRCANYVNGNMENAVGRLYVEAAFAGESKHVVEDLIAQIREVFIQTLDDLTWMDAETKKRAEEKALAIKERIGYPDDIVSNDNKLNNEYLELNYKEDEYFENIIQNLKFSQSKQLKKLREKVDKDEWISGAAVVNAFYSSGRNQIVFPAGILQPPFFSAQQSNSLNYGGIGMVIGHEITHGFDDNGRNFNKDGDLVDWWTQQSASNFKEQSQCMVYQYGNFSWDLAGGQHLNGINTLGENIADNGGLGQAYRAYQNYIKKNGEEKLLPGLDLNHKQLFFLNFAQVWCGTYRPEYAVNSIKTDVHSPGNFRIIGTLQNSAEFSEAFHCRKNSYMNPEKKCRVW

inhibition at 0.1 µM (NEP (neprilysin); 0.1 µM) | inhibition at 0.5 µM (NEP (neprilysin); 0.5 µM) | inhibition at 10 µM (NEP (neprilysin); 10 µM) | inhibition at 50 µM (NEP (neprilysin)) | Structure (SMILES) | CC50 at 24 h [1] | decrease of migration (HOS cells [2]; 25 µM) | decrease of migration (HOS cells [2]; 50 µM) | effect on migration (Saos-2 cells) | effect of thiorphan pretreatment on anti-proliferative properties (HOS cells [3]) | depression of migration (HOS cells [2]; 80 µM)
~40% | ~50% | ~50% | ~50% | [BH3-][P+](OC(C)C)(OC(C)C)C(Nc1ccc(Br)cc1)c1ccc([N+](=O)[O-])cc1 (stereo not shown) [Compound 4, [1-(N-p-bromophenylamino)]-1-(p-nitrophenyl)methylphosphonousacid-borane diisopropyl ester] | 189 ± 36.4 µM | approx. 19% | approx. 38% | not affected | partially abolished | 
 |  |  | ~30% | [BH3-][P+](OC(C)C)(OC(C)C)C(Nc1ccc(C)cc1)c1ccccc1 (stereo not shown) [Compound 6, [1-(N-p-tolylamino)]-1-phenylmethylphosphonous acid-borane diisopropyl ester] | 266 ± 110 µM |  |  | not affected |  | approx. 20%
